Assay [1] deals with oligonucleotides containing the screening sequence (SEQ ID NO:601) flanked by a test sequence (SEQ ID NO:605 to SEQ ID NO:613). Type of assay: binding, Herpes Simplex Virus.
A further assay relates to DNA. The conditions noted are these: cited from earlier work; for published binding constant: bulk genomic DNA (average).
In assay [2] the test system is 256 different 4 bp sequences flanking the UL9 recognition site. The format is binding, Herpes Simplex Virus.

“Also recorded” adds a separate entry of the source. Read-outs that look alike come from different tables or passages of the source. Starred links: 1 amine or outer side, 2 acyl side, 3 side chain; linkers in the order of their positions; H or OH if unused. Positions of bridges follow the written chain, without caps; N, C: chain ends. Non-standard residues stand in square brackets, D forms with d. Residues, ends and D or L forms follow the SMILES beside them. Chains are numbered I, II in the order given. Actinocin(9to1) = Cc1c2oc3c(C)ccc(C(=O)[*:1])c3nc-2c(C(=O)[*:2])c(N)c1=O; NMeV = CN[C@H](C(=O)O)C(C)C; Sar = CNCC(=O)O

`COc1cccc2c1C(=O)c1c(O)c3c(c(O)c1C2=O)C[C@@](O)(C(=O)CO)C[C@@H]3O[C@H]1C[C@H](N)[C@H](O)[C@H](C)O1` [Doxorubicin]: in assay [1], the “effect on DNA:protein complexes” value is “most DNA:protein complexes are nearly completely disrupted, with UL9 polyT and UL9ATAT showing some DNA still complexed with protein”; the “effect on UL9 binding to the screening sequence” value is listed as “strongly affected; also recorded: more mildly affected; also recorded: effects similar to those observed at 15 μM were also observed”; the “test sequences at which UL9 binding to the screening sequence is preferentially disrupted” value (from here on “test sequences at which UL9 binding”) was “preferentially disrupts the binding of UL9 to the oligonucleotides UL9 polyT, UL9 GGGC, oriEco2, and oriEco3”.

As for `Cc1c2oc3c(C)ccc(C(=O)N[C@@H]4C(=O)N[C@H](C(C)C)C(=O)N5CCC[C@H]5C(=O)N(C)CC(=O)N(C)[C@@H](C(C)C)C(=O)O[C@@H]4C)c3nc-2c(C(=O)N[C@@H]2C(=O)N[C@H](C(C)C)C(=O)N3CCC[C@H]3C(=O)N(C)CC(=O)N(C)[C@@H](C(C)C)C(=O)O[C@@H]2C)c(N)c1=O` [actinomycin D, Actinomycin D] (I: T[dV]P[Sar][NMeV] / II: T[dV]P[Sar][NMeV]; ester I:1-I:C, II:1-II:C; linker I:N-II:N via Actinocin(9to1)), the “reported preferred DNA binding sequence” value with DNA (literature) is “dGdC”. Further, in assay [2], the dinucleotide preference result is listed as “GC, particularly in the N1N2 position”; the “mean r % score for all oligonucleotides” value is given as 67%; the “overall sequence preference in the screen of all 256 sequences” value was “preference for binding GC-rich sequences; also recorded: prefers GC-rich sequences over AT-rich sequences”; the “position effect of a single base in the test site” value is reported as “a single base in any particular position has little impact on the binding”. The sequence binding preference entry in assay [2] is “a preference for binding GC-rich oligonucleotides has been observed; also recorded: this binding preference is even more apparent”. For the same compound, the “test sequences at which UL9 binding” value in assay [1] is “preferentially disrupts the binding of UL9-COOH to the oligonucleotides UL9 CCCG (SEQ ID NO:605) and UL9 GGGC (SEQ ID NO:606); also recorded: preferentially disrupts the binding of UL9 to the oligonucleotides UL9 CCCG and UL9 GGGC”.

On to `Cn1cc(NC(=O)c2cc(NC(=O)c3cc(NC=O)cn3C)cn2C)cc1C(=O)NCCC(=N)N` [distamycin, Distamycin A], for which the published binding constant entry with DNA is listed as “about 2×10^5 M^−1”. The published binding constant in the assay on DNA (listed as dista) was 200000 M⁻¹. In the assay with DNA (literature), the “KA (binding to DNA)” value was 200000 M⁻¹ and the “reported preferred DNA binding sequence” value was “non-alternating AT-rich sequences”. Moreover, in assay [2], the “Ave. rank (actual) of the 18 sequences of the second consensus sequence” value is given as 29; the “Average rank (actual) of the 16 sequences of the first consensus sequence” value came out at 17; the “overall sequence preference in the screen of all 256 sequences” value was “preference for binding AT-rich sequences”; the “second consensus sequence, favoured bases and order” value was “A/G/C and G/C/A and G/C and A>G=C and C>A=G and G=C”. Moreover, in assay [1], the “effect on DNA:protein complexes / free probe” value is “most of the DNA:protein complexes are intact (top band) with free probe appearing in the UL9 polyT and UL9 polyA lanes, and some free probe appearing in the UL9 ATAT lane; also recorded: free probe can be seen in the UL9 polyT and UL9 polyA lanes; also recorded: the DNA:protein in the polyT, UL9 polyA and UL9 ATAT lanes are near completely disrupted while some DNA:protein complexes in the other lanes persist”; the “test sequences at which UL9 binding” value was “preferentially disrupts binding to the test sequences UL9 polyT, UL9 polyA and, to a lesser extent, UL9ATAT; also recorded: preferentially disrupts binding to UL9 polyT, UL9 polyA and UL9 ATAT”.

Regarding `CS[C@H]1SC[C@H]2C(=O)N(C)[C@@H](C(C)C)C(=O)OC[C@@H](NC(=O)c3cnc4ccccc4n3)C(=O)N[C@@H](C)C(=O)N(C)[C@@H]1C(=O)N(C)[C@@H](C(C)C)C(=O)OC[C@@H](NC(=O)c1cnc3ccccc3n1)C(=O)N[C@@H](C)C(=O)N2C` [echinomycin], the “reported preferred DNA binding sequence” value in the assay with DNA (literature) is “[(A/T)CGT]/[ACG(A/T)]”.

In the case of calicheamicin, the “reported preferred DNA binding sequence” value in the assay with DNA (literature) was “TCCT/AGGA”.

The values are drawn from patent publication US6384208B1, “Sequence directed DNA binding molecules compositions and methods” (Genelabs Technologies, Inc., priority 1991, dated 2002).
